# Data from US9326973B2, “Hepatitis C virus inhibitors” (priority 2012, dated 2016).
# Tested on: HCV replicon, genotype-1a variant with glutamine 30 changed to glutamate in the NS5A protein
# Test: microbe, parasite or virus in culture
# Format: cell-based, HCV genotype 1a
# Conditions: HCV replicon genotype 1a Q30E (Q→E) variant; test compound titrated with an NS5A-targeting compound (BMS-790052 fixed at 200 nM); ranking of synergist activity
# How it was run: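 Synergy was assessed by combining several fixed amounts of an NS5A-targeting compound with a titration of the second compound of interest.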
row,Structure (SMILES),Fold-Synergistic 1a (Q30E) [fold]
1,CCCC[C@@H](CC(=O)OC(C)(C)C)C(=O)N[C@H](c1nc(-c2ccc(-c3ccc(-c4c[nH]c([C@@H](NC(=O)[C@@H](CCCC)CC(=O)OC(C)(C)C)C(C)(C)C)n4)cc3)cc2)c[nH]1)C(C)(C)C [Compound S-260],>100
2,CC(C)(C)[C@H](NC(=O)C12CCC(CC1)C2)c1nc(-c2ccc(-c3ccc(-c4c[nH]c([C@@H](NC(=O)C56CCC(CC5)C6)C(C)(C)C)n4)cc3)cc2)c[nH]1 [Compound S-261],>100
3,COc1ccccc1C1OC(=O)C[C@@H]1C(=O)N[C@H](c1nc(-c2ccc(-c3ccc(-c4c[nH]c([C@@H](NC(=O)[C@H]5CC(=O)OC5c5ccccc5OC)C(C)(C)C)n4)cc3)cc2)c[nH]1)C(C)(C)C (stereo partly shown) [Compound S-263],>10
4,CC(C)(C)OC(=O)N1CCC(C(=O)N[C@H](c2nc(-c3ccc(-c4ccc(-c5c[nH]c([C@@H](NC(=O)C6CCN(C(=O)OC(C)(C)C)CC6)C(C)(C)C)n5)cc4)cc3)c[nH]2)C(C)(C)C)CC1 [Compound S-264],>100
5,CC(C)(C)[C@H](NC(=O)C1CC(=O)N(c2ccccc2O)C1)c1nc(-c2ccc(-c3ccc(-c4c[nH]c([C@@H](NC(=O)C5CC(=O)N(c6ccccc6O)C5)C(C)(C)C)n4)cc3)cc2)c[nH]1 (stereo partly shown) [Compound S-265],>100
6,CC(C)(C)OC(=O)N[C@@H]1CCCC(C(=O)N[C@H](c2nc(-c3ccc(-c4ccc(-c5c[nH]c([C@@H](NC(=O)C6CCC[C@@H](NC(=O)OC(C)(C)C)C6)C(C)(C)C)n5)cc4)cc3)c[nH]2)C(C)(C)C)C1 (stereo partly shown) [Compound S-266],>100
7,COc1ccc(CNC(C)(C)C(=O)N[C@H](c2nc(-c3ccc(-c4ccc(-c5c[nH]c([C@@H](NC(=O)C(C)(C)NCc6ccc(OC)cc6)C(C)(C)C)n5)cc4)cc3)c[nH]2)C(C)(C)C)cc1 [Compound S-267],>100
8,CN1CCC(C(=O)N[C@H](c2nc(-c3ccc(-c4ccc(-c5c[nH]c([C@@H](NC(=O)C6CCN(C)CC6)C(C)(C)C)n5)cc4)cc3)c[nH]2)C(C)(C)C)CC1 [Compound S-268],>10
9,CC(C)(C)[C@H](NC(=O)C1CCCCC1c1ccccc1)c1nc(-c2ccc(-c3ccc(-c4c[nH]c([C@@H](NC(=O)C5CCCCC5c5ccccc5)C(C)(C)C)n4)cc3)cc2)c[nH]1 (stereo partly shown) [Compound S-269],>100
10,CC(C)(C)OC(=O)NC1CCC(C(=O)N[C@H](c2nc(-c3ccc(-c4ccc(-c5c[nH]c([C@@H](NC(=O)C6CCC(NC(=O)OC(C)(C)C)CC6)C(C)(C)C)n5)cc4)cc3)c[nH]2)C(C)(C)C)CC1 (stereo partly shown) [Compound S-270],>100
11,CC(C)(C)OC(=O)C[C@H](C(=O)N[C@H](c1nc(-c2ccc(-c3ccc(-c4c[nH]c([C@@H](NC(=O)[C@@H](CC(=O)OC(C)(C)C)C5CCCC5)C(C)(C)C)n4)cc3)cc2)c[nH]1)C(C)(C)C)C1CCCC1 [Compound S-272],>100
12,COC(=O)C1(C(=O)N[C@H](c2nc(-c3ccc(-c4ccc(-c5c[nH]c([C@@H](NC(=O)C6(C(=O)OC)CCCCC6)C(C)(C)C)n5)cc4)cc3)c[nH]2)C(C)(C)C)CCCCC1 [Compound S-273],>100
13,CC(=O)OC1C2CCCC1(C(=O)N[C@H](c1nc(-c3ccc(-c4ccc(-c5c[nH]c([C@@H](NC(=O)C67CCCC(CCC6)C7OC(C)=O)C(C)(C)C)n5)cc4)cc3)c[nH]1)C(C)(C)C)CCC2 (stereo partly shown) [Compound S-274],>100
14,COC(=O)N[C@@H]1CCCCC1C(=O)N[C@H](c1nc(-c2ccc(-c3ccc(-c4c[nH]c([C@@H](NC(=O)C5CCCC[C@H]5NC(=O)OC)C(C)(C)C)n4)cc3)cc2)c[nH]1)C(C)(C)C (stereo partly shown) [Compound S-275],>100
15,CC(C)(C)[C@H](NC(=O)C(C)(C)n1ncnn1)c1nc(-c2ccc(-c3ccc(-c4c[nH]c([C@@H](NC(=O)C(C)(C)n5ncnn5)C(C)(C)C)n4)cc3)cc2)c[nH]1 [Compound S-276],>100
16,CC(C)(C)[C@H](NC(=O)C(C)(C)n1cnnn1)c1nc(-c2ccc(-c3ccc(-c4c[nH]c([C@@H](NC(=O)C(C)(C)n5cnnn5)C(C)(C)C)n4)cc3)cc2)c[nH]1 [Compound S-277],>100
17,Cc1c2c(nn1C)CCC(C(=O)N[C@H](c1nc(-c3ccc(-c4ccc(-c5c[nH]c([C@@H](NC(=O)C6CCc7nn(C)c(C)c7C6)C(C)(C)C)n5)cc4)cc3)c[nH]1)C(C)(C)C)C2 (stereo partly shown) [Compound S-278],>100
18,CC1(C)OC(=O)CC1C(=O)N[C@H](c1nc(-c2ccc(-c3ccc(-c4c[nH]c([C@@H](NC(=O)C5CC(=O)OC5(C)C)C(C)(C)C)n4)cc3)cc2)c[nH]1)C(C)(C)C (stereo partly shown) [Compound S-279],>10
19,CC1(C(=O)N[C@H](c2nc(-c3ccc(-c4ccc(-c5c[nH]c([C@@H](NC(=O)C6(C)COC(c7ccccc7)OC6)C(C)(C)C)n5)cc4)cc3)c[nH]2)C(C)(C)C)COC(c2ccccc2)OC1 (stereo partly shown) [Compound S-280],>100
20,CCCC(C)(C)C(=O)N[C@H](c1nc(-c2ccc(-c3ccc(-c4c[nH]c([C@@H](NC(=O)C(C)(C)CCC)C(C)(C)C)n4)cc3)cc2)c[nH]1)C(C)(C)C [Compound S-281],>100
21,CC(C)(C)[C@H](NC(=O)C(F)(F)c1ccccc1)c1nc(-c2ccc(-c3ccc(-c4c[nH]c([C@@H](NC(=O)C(F)(F)c5ccccc5)C(C)(C)C)n4)cc3)cc2)c[nH]1 [Compound S-282],>100
22,CC(C)(C)[C@H](NC(=O)C(F)(F)C(O)c1cccnc1)c1nc(-c2ccc(-c3ccc(-c4c[nH]c([C@@H](NC(=O)C(F)(F)C(O)c5cccnc5)C(C)(C)C)n4)cc3)cc2)c[nH]1 (stereo partly shown) [Compound S-283],>100
23,CCC(F)(F)C(=O)N[C@H](c1nc(-c2ccc(-c3ccc(-c4c[nH]c([C@@H](NC(=O)C(F)(F)CC)C(C)(C)C)n4)cc3)cc2)c[nH]1)C(C)(C)C [Compound S-284],>100
24,CC(C)(C)[C@H](NC(=O)C1(c2ccc(F)cc2)CC1(C)C)c1nc(-c2ccc(-c3ccc(-c4c[nH]c([C@@H](NC(=O)C5(c6ccc(F)cc6)CC5(C)C)C(C)(C)C)n4)cc3)cc2)c[nH]1 (stereo partly shown) [Compound S-285],>100
25,CC(C)(C)[C@H](NC(=O)C1(F)CCCCC1)c1nc(-c2ccc(-c3ccc(-c4c[nH]c([C@@H](NC(=O)C5(F)CCCCC5)C(C)(C)C)n4)cc3)cc2)c[nH]1 [Compound S-286],>100
26,C=CCC(F)(F)C(=O)N[C@H](c1nc(-c2ccc(-c3ccc(-c4c[nH]c([C@@H](NC(=O)C(F)(F)CC=C)C(C)(C)C)n4)cc3)cc2)c[nH]1)C(C)(C)C [Compound S-287],>100
27,Cc1ccc(C(F)(F)C(=O)N[C@H](c2nc(-c3ccc(-c4ccc(-c5c[nH]c([C@@H](NC(=O)C(F)(F)c6ccc(C)cc6)C(C)(C)C)n5)cc4)cc3)c[nH]2)C(C)(C)C)cc1 [Compound S-288],>100
28,COc1cccc(C2(C(=O)N[C@H](c3nc(-c4ccc(-c5ccc(-c6c[nH]c([C@@H](NC(=O)C7(c8cccc(OC)c8)CCC(C)CC7)C(C)(C)C)n6)cc5)cc4)c[nH]3)C(C)(C)C)CCC(C)CC2)c1 (stereo partly shown) [Compound S-289],>100
